According to paper PMC3117942 (2011):

Target: T1, RARγ (Homo sapiens, UniProt P13631)
T1 sequence (P13631 185-419 limits assumed): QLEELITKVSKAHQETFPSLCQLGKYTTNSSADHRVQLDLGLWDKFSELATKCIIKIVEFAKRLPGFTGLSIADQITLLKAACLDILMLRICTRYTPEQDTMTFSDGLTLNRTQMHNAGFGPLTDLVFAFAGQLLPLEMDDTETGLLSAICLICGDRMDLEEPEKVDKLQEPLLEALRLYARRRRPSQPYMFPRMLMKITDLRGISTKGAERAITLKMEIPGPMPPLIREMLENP
Assay: Gal4-RARγ-LBD UAS-luciferase reporter in HEK293T, activation at […]
Type: cell-based
Settings: hek293t cells

How did the “Gal4-RARγ-LBD UAS-luciferase reporter in HEK293T, activation at 1 nM (2.1 fold)” value turn out when CC1=C(/C=C/C(C)=C/C=C/C(C)=C/C(=O)O)C(C)(C)CCC1 [ATRA, all-trans retinoic acid] was run?
Its value is 2.1 fold.
